Values quoted from earlier work, collected in US20210205254A1, “OMEGA-3 PENTAENOIC ACID COMPOSITIONS AND METHODS OF USE” (Matinas BioPharma, Inc., priority 2012, published 2021).

Settings: in vivo

| Structure (SMILES) | bioavailable | absorbed (rate) |
| --- | --- | --- |
| CC(C)n1c(/C=C/C(O)CC(O)CC(=O)O)c(-c2ccc(F)cc2)c2ccccc21 (centres unmarked) [fluvastatin] | approximately 24% | – |
| CC[C@H](C)C(=O)O[C@H]1C[C@@H](C)C=C2C=C[C@H](C)[C@H](CC[C@@H]3C[C@@H](O)CC(=O)O3)[C@H]21 [lovastatin] | – | about 30% |
